# Reference: ChEMBL document CHEMBL1201862, “PubChem BioAssay data set” (2004)
# Activity calls are given as the source filed them.
# Assays:
# [1] = target: Intestinal-type alkaline phosphatase (Mus musculus, UniProt P24822); assay: PubChem AID 488875; assay type: functional
# [2] = target: T1, Intestinal-type alkaline phosphatase (Homo sapiens, UniProt P09923); assay: human intestinal alkaline phosphatase activators, dose response, biochemical, luminescence, uHTS hits (AID 463120); assay type: functional
# T1 sequence (P09923 whole entry): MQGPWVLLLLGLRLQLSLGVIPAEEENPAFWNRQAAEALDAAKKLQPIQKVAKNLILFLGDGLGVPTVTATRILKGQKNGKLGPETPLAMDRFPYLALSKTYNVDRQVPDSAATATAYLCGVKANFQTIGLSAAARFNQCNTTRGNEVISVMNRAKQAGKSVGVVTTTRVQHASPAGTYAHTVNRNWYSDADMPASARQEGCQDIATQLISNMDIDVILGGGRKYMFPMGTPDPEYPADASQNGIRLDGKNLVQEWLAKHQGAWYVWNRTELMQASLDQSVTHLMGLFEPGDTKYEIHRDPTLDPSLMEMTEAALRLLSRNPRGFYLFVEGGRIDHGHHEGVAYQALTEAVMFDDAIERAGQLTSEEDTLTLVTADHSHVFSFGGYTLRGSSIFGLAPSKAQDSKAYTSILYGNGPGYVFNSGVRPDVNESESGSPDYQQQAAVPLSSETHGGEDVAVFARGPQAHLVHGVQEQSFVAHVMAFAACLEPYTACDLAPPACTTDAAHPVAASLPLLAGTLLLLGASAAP
# [3] = target: T1, Intestinal-type alkaline phosphatase; assay: human IAP activators, dose response, biochemical, luminescent, uHTS hits, set 2 (AID 488817); assay type: functional;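 note: potency of activators that raise enzyme activity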
# [4] = target: T2, Alkaline phosphatase, tissue-nonspecific isozyme (Homo sapiens, UniProt P05186); assay: TNAP enzyme activators, dose response, selectivity assay for human IAP activator project, biochemical, TNAP isozyme, human IAP uHTS hits (AID 488886); assay type: functional;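 note: potency of compounds raising TNAP activity as a selectivity check on IAP activators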
# T2 sequence (P05186 whole entry): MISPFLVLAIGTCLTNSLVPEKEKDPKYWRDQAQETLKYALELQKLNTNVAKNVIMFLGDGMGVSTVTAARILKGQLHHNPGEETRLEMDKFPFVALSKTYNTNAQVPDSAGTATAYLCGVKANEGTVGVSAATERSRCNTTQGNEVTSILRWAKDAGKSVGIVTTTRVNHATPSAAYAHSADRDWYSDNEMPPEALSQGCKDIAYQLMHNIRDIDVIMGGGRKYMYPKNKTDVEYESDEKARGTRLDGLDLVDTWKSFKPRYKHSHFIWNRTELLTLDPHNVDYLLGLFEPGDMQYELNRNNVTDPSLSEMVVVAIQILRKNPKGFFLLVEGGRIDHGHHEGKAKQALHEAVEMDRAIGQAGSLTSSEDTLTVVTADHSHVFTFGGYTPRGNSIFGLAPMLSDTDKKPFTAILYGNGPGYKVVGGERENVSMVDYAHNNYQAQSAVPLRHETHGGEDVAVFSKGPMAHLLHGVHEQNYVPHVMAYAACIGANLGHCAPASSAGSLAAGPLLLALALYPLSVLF
# [5] = target: T3, Tyrosine-protein phosphatase non-receptor type 7 (Homo sapiens, UniProt P35236); assay type: functional
# T3 sequence (P35236 whole entry): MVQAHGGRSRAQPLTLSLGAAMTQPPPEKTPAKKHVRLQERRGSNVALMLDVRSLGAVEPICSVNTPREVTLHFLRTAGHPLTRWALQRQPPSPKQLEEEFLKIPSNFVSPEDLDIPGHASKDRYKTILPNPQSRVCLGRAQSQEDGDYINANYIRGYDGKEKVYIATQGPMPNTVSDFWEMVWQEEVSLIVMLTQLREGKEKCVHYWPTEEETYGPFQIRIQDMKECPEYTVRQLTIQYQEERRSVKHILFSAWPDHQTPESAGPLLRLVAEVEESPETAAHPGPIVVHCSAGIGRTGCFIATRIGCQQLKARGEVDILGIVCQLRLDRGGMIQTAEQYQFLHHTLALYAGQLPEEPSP
# [6] = target: T4, Tyrosine-protein phosphatase non-receptor type 22 (Homo sapiens, UniProt Q9Y2R2); assay type: functional
# T4 sequence (Q9Y2R2 whole entry): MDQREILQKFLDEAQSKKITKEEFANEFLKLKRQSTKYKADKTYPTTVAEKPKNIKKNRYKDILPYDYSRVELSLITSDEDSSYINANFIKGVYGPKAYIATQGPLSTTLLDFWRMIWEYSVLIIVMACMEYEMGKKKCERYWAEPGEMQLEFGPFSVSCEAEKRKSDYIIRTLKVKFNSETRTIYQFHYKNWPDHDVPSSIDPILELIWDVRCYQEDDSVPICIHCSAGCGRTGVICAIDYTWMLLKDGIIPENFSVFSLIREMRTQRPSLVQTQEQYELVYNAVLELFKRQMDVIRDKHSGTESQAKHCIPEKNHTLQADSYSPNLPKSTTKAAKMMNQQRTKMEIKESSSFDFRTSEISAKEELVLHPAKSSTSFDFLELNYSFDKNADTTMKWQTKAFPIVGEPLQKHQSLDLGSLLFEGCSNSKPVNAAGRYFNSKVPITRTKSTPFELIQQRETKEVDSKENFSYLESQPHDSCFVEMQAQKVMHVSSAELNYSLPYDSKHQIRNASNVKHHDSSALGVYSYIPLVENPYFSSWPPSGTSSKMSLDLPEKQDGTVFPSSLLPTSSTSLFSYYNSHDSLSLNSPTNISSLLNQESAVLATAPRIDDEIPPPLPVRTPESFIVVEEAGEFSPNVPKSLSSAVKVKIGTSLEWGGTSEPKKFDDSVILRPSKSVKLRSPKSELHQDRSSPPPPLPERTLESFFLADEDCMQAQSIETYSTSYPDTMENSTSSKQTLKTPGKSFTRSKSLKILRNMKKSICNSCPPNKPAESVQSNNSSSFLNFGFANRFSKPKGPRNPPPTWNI
# [7] = target: T4, Tyrosine-protein phosphatase non-receptor type 22; assay type: functional; remark: listed apart in the source
# [8] = target: T5, Kappa-type opioid receptor (Homo sapiens, UniProt P41145); assay: SAR analysis of small molecule antagonists of the kappa opioid receptor via a luminescent beta-arrestin assay - Set 4. [Related pubchem assays (depositor defined):AID1777, AID1778, AID1785, AID1786, AID1966, AID2133, AID2136, AID2285]; assay type: functional
# T5 sequence (P41145 whole entry): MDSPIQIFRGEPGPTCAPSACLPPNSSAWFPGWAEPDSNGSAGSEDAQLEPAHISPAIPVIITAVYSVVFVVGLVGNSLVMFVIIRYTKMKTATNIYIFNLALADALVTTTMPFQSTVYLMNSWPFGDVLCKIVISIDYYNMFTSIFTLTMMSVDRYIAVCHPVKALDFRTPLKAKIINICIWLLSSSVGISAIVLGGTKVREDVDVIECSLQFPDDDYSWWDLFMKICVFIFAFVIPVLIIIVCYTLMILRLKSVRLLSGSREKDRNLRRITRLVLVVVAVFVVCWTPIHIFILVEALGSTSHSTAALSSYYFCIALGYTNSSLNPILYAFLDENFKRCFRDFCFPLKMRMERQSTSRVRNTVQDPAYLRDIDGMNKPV
# [9] = target: T5, Kappa-type opioid receptor; assay: SAR analysis of small molecule antagonists of the kappa opioid receptor via a luminescent beta-arrestin assay - Set 5. [Related pubchem assays (depositor defined):AID1778, AID1785]; assay type: functional
# [10] = HEp-2 cell cytotoxicity, dose response, cytotoxicity control for RSV inhibitor project, HTS (AID 2410); assay type: functional; conditions: human respiratory syncytial virus
# [11] = target: T6, G-protein coupled receptor 35 (Homo sapiens, UniProt Q9HC97); assay: SAR analysis of Agonists of the GPR35 Receptor using an Image-Based Assay - Set 4. [Related pubchem assays (depositor defined):AID2013, AID2026]; assay type: functional
# T6 sequence (Q9HC97 whole entry): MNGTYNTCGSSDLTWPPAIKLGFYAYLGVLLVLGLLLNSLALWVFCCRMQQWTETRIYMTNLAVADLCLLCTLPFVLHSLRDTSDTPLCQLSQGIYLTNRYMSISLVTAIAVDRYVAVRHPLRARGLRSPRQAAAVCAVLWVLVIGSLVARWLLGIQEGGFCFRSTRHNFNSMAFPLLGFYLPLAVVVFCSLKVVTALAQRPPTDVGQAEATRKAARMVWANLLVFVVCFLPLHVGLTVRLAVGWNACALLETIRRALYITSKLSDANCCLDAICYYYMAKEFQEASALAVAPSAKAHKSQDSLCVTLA
# [12] = target: T7, Cannabinoid receptor 1 (Homo sapiens, UniProt P21554); assay: SAR analysis of agonists of the Cannabinoid Receptor 1 using an Image-Based Assay - Set 4. [Related pubchem assays (depositor defined):AID2013, AID2026]; assay type: functional
# T7 sequence (P21554 whole entry): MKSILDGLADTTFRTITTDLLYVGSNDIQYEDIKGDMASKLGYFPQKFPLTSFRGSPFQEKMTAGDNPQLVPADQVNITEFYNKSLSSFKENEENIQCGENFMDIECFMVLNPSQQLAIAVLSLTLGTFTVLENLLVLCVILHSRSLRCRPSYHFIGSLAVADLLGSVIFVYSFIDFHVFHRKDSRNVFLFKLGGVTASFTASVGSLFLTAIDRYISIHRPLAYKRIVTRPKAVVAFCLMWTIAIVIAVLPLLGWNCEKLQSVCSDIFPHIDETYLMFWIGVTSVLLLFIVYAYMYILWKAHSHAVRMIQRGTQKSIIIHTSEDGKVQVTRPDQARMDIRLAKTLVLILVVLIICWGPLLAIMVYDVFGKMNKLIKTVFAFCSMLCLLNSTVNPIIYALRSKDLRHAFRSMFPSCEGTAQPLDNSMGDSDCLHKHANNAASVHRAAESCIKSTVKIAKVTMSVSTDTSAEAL
# [13] = target: T6, G-protein coupled receptor 35; assay: SAR analysis of Antagonists of the GPR35 Receptor using an Image-Based Assay - Set 6. [Related pubchem assays (depositor defined):AID2013, AID2026]; assay type: functional
# [14] = target: T7, Cannabinoid receptor 1; assay: SAR analysis of antagonists of the Cannabinoid Receptor 1 using an Image-Based Assay - Set 4. [Related pubchem assays (depositor defined):AID2013, AID2026]; assay type: functional
# [15] = target: G-protein coupled receptor 55 (Homo sapiens, UniProt Q9Y2T6); assay: SAR Analysis of Selective Antagonists of GPR55 using an Image-Based Assay - Set 4. [Related pubchem assays (depositor defined):AID2013, AID2026]; assay type: functional;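 note: antagonism of response to 5 µM lysophosphatidylinositol agonist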
# Sequence of G-protein coupled receptor 55 (Q9Y2T6 whole entry): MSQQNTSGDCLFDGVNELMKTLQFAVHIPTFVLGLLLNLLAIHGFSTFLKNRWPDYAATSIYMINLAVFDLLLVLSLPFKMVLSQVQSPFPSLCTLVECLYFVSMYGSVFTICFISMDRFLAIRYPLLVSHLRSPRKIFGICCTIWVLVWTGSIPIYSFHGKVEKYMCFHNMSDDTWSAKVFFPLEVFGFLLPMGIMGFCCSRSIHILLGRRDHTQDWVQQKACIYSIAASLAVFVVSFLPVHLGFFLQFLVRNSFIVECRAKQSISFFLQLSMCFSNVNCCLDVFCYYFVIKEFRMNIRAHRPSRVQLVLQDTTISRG
# [16] = target: T8, Cannabinoid receptor 2 (Homo sapiens, UniProt P34972); assay: SAR analysis of antagonists of the Cannabinoid Receptor 2 using an Image-Based Assay - Set 3. [Related pubchem assays (depositor defined):AID2013, AID2026]; assay type: functional
# T8 sequence (P34972 whole entry): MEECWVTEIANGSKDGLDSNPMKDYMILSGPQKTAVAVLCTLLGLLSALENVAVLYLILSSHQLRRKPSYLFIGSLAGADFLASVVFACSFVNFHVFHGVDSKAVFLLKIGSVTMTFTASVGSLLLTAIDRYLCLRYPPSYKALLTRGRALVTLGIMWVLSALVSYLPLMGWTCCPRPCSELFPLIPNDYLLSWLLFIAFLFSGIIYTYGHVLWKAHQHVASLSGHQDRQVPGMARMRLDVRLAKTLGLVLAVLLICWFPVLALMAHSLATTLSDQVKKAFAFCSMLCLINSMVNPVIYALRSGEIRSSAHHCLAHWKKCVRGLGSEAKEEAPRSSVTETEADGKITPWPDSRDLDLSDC
# [17] = target: T8, Cannabinoid receptor 2; assay: SAR analysis of agonists of the Cannabinoid Receptor 2 using an Image-Based Assay - Set 3. [Related pubchem assays (depositor defined):AID2013, AID2026]; assay type: functional
# [18] = target: T9, Probable nicotinate-nucleotide adenylyltransferase (Staphylococcus aureus (strain N315), UniProt P65502); assay type: functional, Staphylococcus aureus subsp. aureus N315;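 for IC50 Mean: confirmatory dose-response retesting of NadD inhibitor hits first found in an ultra-high-throughput screen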
# T9 sequence (P65502 whole entry): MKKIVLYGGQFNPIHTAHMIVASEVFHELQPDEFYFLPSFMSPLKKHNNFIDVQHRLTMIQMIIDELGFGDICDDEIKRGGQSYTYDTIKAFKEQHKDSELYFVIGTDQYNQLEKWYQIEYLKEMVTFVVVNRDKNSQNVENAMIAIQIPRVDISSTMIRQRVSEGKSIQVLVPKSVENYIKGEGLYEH
# [19] = target: T9, Probable nicotinate-nucleotide adenylyltransferase; assay type: functional, Staphylococcus aureus subsp. aureus N315; conditions: read-out: IC50_Mean
# Sequence of Intestinal-type alkaline phosphatase (Mus musculus, UniProt P24822) (P24822 whole entry): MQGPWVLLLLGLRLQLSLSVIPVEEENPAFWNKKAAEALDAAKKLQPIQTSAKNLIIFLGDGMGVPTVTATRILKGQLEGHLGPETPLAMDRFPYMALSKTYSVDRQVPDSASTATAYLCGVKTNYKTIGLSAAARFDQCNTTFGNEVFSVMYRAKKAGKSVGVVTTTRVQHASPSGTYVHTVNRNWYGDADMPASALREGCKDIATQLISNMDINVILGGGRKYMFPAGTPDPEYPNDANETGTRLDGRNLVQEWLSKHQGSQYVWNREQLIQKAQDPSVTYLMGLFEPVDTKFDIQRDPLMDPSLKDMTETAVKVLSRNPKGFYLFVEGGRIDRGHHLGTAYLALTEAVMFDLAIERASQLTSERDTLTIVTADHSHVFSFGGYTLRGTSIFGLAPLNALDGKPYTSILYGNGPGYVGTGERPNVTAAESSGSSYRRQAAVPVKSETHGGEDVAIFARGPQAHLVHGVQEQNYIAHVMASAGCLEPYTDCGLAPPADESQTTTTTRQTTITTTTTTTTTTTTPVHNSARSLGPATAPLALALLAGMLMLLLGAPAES
smiles,measurement,setting,value
CC(N=C(S)NC1CCC(C(C)(C)C)CC1)c1ccccc1 (centres undefined),EC50,[1],22.4 µM (active)
same,EC50,[2],39.8 µM (active)
same,EC50,[3],44.3 µM (active)
same,EC50,[4],38.8 µM (active)
COc1ccc(C2CC(c3ccc(C)cc3)=NN2C(=O)CCC(=O)O)cc1OC (centres undefined),IC50,[5],> 79.4 µM (inactive)
same,IC50,[6],> 79.4 µM (inactive)
same,IC50,[7],> 79.4 µM (inactive)
Cc1ccc(S(=O)(=O)NCc2ccc(C(=O)NCCN(Cc3ccc([N+](=O)[O-])cc3)C(C)C)cc2)cc1,IC50,[8],> 20 µM (inactive)
same,IC50,[9],> 20 µM (inactive)
Cc1ccc(-c2cc(C(=O)Nc3ccc(S(=O)(=O)Nc4nccs4)cc3)c3ccccc3n2)c(C)c1,CC50,[10],24.3 µM (active)
same,EC50,[11],> 32 µM (inactive)
same,EC50,[12],> 32 µM (inactive)
same,IC50,[13],> 32 µM (inactive)
same,IC50,[14],10.2 µM (inactive)
same,IC50,[15],7.7 µM (active)
same,IC50,[16],> 32 µM (inactive)
same,EC50,[17],> 32 µM (inactive)
same,IC50,[18],5.29 µM (active)
same,IC50,[19],21.6 µM (active)
